In US20140234252A1, “Composition and Methods for the Treatment of Degenerative Retinal Conditions” (The Provost, Fellows, Foundation Scholars, and the other …, priority 2011, published 2014):
Residues, ends and D or L forms follow the SMILES beside them. *: point of attachment. Cbz = O=C(OCc1ccccc1)*; CH2F = FC*

Columns and labels:
human PBMC = test: Cytokine ELISA in LPS-primed, C1Q-activated human PBMC with inhibitors; format: cell-based; details: PBMC primed with LPS overnight, 5 μg/ml C1Q 6 h, inhibitor added 1 h before C1Q
Procedure: (§1) FIG. 3: Complement factor C1Q, a component of Drusen, activates the NLRP3 inflammasome: (a) Production of IL-1β (left panel) and TNFα (right panel) in BMDMs primed with CEP for 3 h and activated for 6 h with C1q at increasing doses. (b) Western blot of caspase-1 cleavage products in THP1 cells primed with LPS and treated with increasing doses of C1Q. (c) Live cell imaging of immortalised BL6 BMDMs stably expressing YFP-ASC. Cells were primed for 3 hrs with either LPS (top panel) or CEP-HSA followed by treatment with 10 μg C1Q (right panel) for a further 2 hrs. Oligomerisation of ASC-YFP was observed by speck formation, original magnification ×60. (d) IL-1β (left panel) and TNF-α (right panel) production in WT and Nlrp3^-/- BMDCs primed with LPS (3 h) and activated with C1Q (16 h) at increasing doses (2.5, 5 and 10 μg C1Q). (e) IL-1β, IL-18 and IL-6 production in human PBMC primed with […] LPS overnight and activated with 5 μg ml C1Q for 6 h, with the addition, 1 h before C1Q treatment of increasing doses (10 fold) of ZVAD (caspase-1 inhibitor). All ELISA data are representative of a minimum of 3 separate experiments carried out in triplicate.
FIG. 13: IL-1β, IL-18 and IL-6 production in human PBMC primed with 100 ng/ml LPS overnight and activated with 5 μg/ml C1Q for 6 h, with the addition, 1 h before C1Q treatment of increasing doses (10 fold) of (a) DPI (ROS inhibitor), (b) Bafilomycin (inhibits lysosomal acidification), (c) CA-074 Me (cathepsin B inhibitor).
(§2) ELISA's were used to quantify cytokines in supernatants from the various experimental groups used throughout this study. IL-1β (RnD Systems), IL-18 (MBL International), IL-6 (RnD Systems), TNF-α (RnD Systems) and VEGF (RnD Systems) were analyzed throughout. All ELISA's were conducted a minimum of 3 times in triplicate. Inhibitors used during this study were added at the following highest concentrations 1 h prior to inflammasome activation: 1 μg/ml of caspase-1 inhibitor VI (Calbiochem), 5 μM cytochalasin D (Sigma Aldrich, Ireland), 10 μM CA-074 Me (cathepsin B inhibitor) (Sigma Aldrich, Ireland), 10 μM DPI (Sigma Aldrich, Ireland).
(§3) ARPE-19 cell line (ATCC CRL 2302) were obtained from LGC promochem, THP1 cells and primary isolated human peripheral blood mononuclear […] (PBMCs) were used for in vitro inflammasome activation assays. Cells were cultured at 37° C., 5% CO2, 95% air in a 1:1 mixture of Dulbecco's modified Eagle's medium (DMEM) and Ham's F12 medium with 1.2 g/L sodium bicarbonate, 2.5 mM L-glutamine, 15 mM HEPES, 0.5 mM sodium pyruvate (Sigma Aldrich) with 10% foetal calf serum (FCS). BMDCs and BMDMs were also isolated from WT, NLRP3-/-, TLR-2-/-, C3H/HeN and C3H/HeJ mice on a congenic C57/B16 background. BMDCs and BMDMs were stained with anti-CD11c-APC and anti-CD11b-PeCy7. Cells were gated on live single cells and expression of CD11c and CD11b was assesed by flow cytometry (FIG. 19). Mouse bEnd.3 microvascular endothelial cells were grown on fibronectin (Sigma Aldrich Ireland) coated tissue culture flasks in DMEM containing Glutamax and 10% FCS.

[1] = Zeta potential measurement of C1Q in solution; format: physicochemical
BMDMs = test: Cytokine ELISA in BMDMs activated with C1Q; format: cell-based, mouse
Procedure: as §1, §2
(§4) ARPE-19 cell line (ATCC CRL 2302) were obtained from LGC promochem, THP1 cells and primary isolated human peripheral blood mononuclear […] (PBMCs) were used for in vitro inflammasome activation assays. […]

THP1 cells = test: Western blot of caspase-1 cleavage products in THP1 cells; format: cell-based, human; details: THP1 cell lysates
Procedure: Generally, antibodies specific for caspase-1 (Santa-Cruz Biotech), beta-actin (Abcam), NLRP3 (Sigma Aldrich, Ireland), TLR-4 (Santa-Cruz Biotech) were incubated on membranes overnight at 4° C. Membranes were washed with TBS, and incubated with a secondary antibody against rabbit (IgG) with Horse-Radish-Peroxidase (HRP) conjugates (1:2500) (Sigma-Aldrich, Ireland), or mouse (IgG) (1:1000), (Sigma-Aldrich, Ireland), for 3 hours at room temperature. Immune complexes were detected using enhanced chemiluminescence (ECL). All Western blots were repeated a minimum of 3 times.
as §3, with “Mouse bEnd.3 microvascular endothelial cells were grown on fibronectin (Sigma Aldrich Ireland) coated tissue culture flasks in DMEM containing Glutamax and 10% FCS.” left out

BMDMs expressing YFP-ASC = test: ASC speck formation in immortalised BMDMs expressing YFP-ASC; format: cell-based, mouse; details: primed BMDMs, live cell imaging
Text: Live cell imaging of speck formation was undertaken using a temperature and CO2 regulated confocal laser scanning microscopy (Olympus FluoView TM FV1000).

BMDCs = test: Cytokine ELISA in WT and Nlrp3-/- BMDCs primed with LPS and activated with C1Q; format: cell-based, mouse; details: for production of IL-1β: LPS 3 h, C1Q 16 h
Procedure: as §1, §2, §4

ARPE-19 cells = test: VEGF ELISA in ARPE-19 cells treated with recombinant IL-18; format: cell-based; details: increasing doses of IL-18, 24 hrs, growth medium
Procedure: as §2
(§5) ARPE-19 cell line (ATCC CRL 2302) were obtained from LGC promochem, THP1 cells and primary isolated human peripheral blood mononuclear […] (PBMCs) were used for in vitro inflammasome activation assays. Cells were cultured at 37° C., 5% CO2, 95% air in a 1:1 mixture of Dulbecco's modified Eagle's medium (DMEM) and Ham's F12 medium with 1.2 g/L sodium bicarbonate, 2.5 mM L-glutamine, 15 mM HEPES, 0.5 mM sodium pyruvate (Sigma Aldrich) with 10% foetal calf serum (FCS). […]
(§6) We reasoned that IL-18 might confer its protection via the regulation of VEGF synthesis. To test this hypothesis we treated ARPE19 cells and a mouse brain microvascular endothelial cell line (bEnd.3) with recombinant IL-18 and subsequently analysed VEGF levels in the growth medium. […]

[2] = tested on: mouse brain microvascular endothelial cell line (bEnd.3); test: VEGF ELISA in bEnd.3 cells treated with recombinant IL-18; format: cell-based; details: increasing doses of IL-18, 24 hrs, growth medium
Procedure: as §2, §5, §6

[3] = tested on: intraocular neovascularization in C57BL/6 mice; details: administered to C57BL/6 mice during development of oxygen induced retinopathy; cited from earlier work
wet AMD = details: human, in vivo; cited from earlier work

c1ccc2c(c1)[I+]c1ccccc1-2 [DPI]
C1Q induced IL-1β production (human PBMC): no effect

C1Q: complement factor, primary initiating component of the classical complement pathway; drusen component, isolated from human blood
zeta average (zeta potential) [1]: 11.8 mV | production of IL-1β (BMDMs; BMDMs primed with CEP-HSA 3 h, C1Q 6 h): produced significant levels of IL-1β | secretion of TNFα (BMDMs; BMDMs primed with CEP-HSA, C1Q added): remained unchanged | production of IL-1β (BMDMs; C1Q alone, unprimed BMDMs): did not cause the production of IL-1β | cleaved caspase-1 p10 (THP1 cells): observed cleaved caspase-1 p10 | ASC oligomerisation (YFP-ASC speck formation) (BMDMs expressing YFP-ASC): could cause ASC oligomerisation | production of IL-1β (BMDCs; Nlrp3-/- cells): failed to produce IL-1β | production of IL-1β (BMDCs; WT BMDCs): did produce a significant level of IL-1β | levels of TNFα (BMDCs; WT and Nlrp3-/- BMDCs, LPS primed, C1Q): remained unchanged

IL-18: 18KDa mature IL-18; protein sequence NCBI Accession no. NP—001553.1; also covers recombinant IL-18
levels of VEGF secreted (ARPE-19 cells): significantly decreased | levels of VEGF secreted [2]: significantly decreased | neovascularization [3]: no inhibition of neovascularization

CCCNC(=O)[C@H]1O[C@@H]1C(=O)N[C@H](C(=O)N1CCC[C@H]1C(=O)OC)[C@@H](C)CC [CA-074 Me]
C1Q induced IL-1β production (human PBMC): restricted | C1Q induced IL-18 production (human PBMC): restricted | IL-6 production (human PBMC): no effect

CO/C1=C\C(C)=C\[C@@H](C)[C@@H](O)[C@@H](C)C/C(C)=C/C=C/[C@H](OC)[C@@H]([C@@H](C)[C@@H](O)[C@H](C)[C@@]2(O)C[C@@H](O)[C@H](C)[C@@H](C(C)C)O2)OC1=O [bafilomycin A]
C1Q induced IL-1β production (human PBMC): restricted | C1Q induced IL-18 production (human PBMC): restricted | IL-6 production (human PBMC): no effect

Infliximab: marketed drug tested in clinical trials in wet AMD
subjects in whom symptoms were greatly exacerbated (wet AMD): more than 50%

CC(NC(=O)C(NC(=O)OCc1ccccc1)C(C)C)C(=O)NC(CC(=O)O)C(=O)CF (stereo not drawn) [ZVAD] (Cbz-Val-Ala-Asp-CH2F; configuration not given here)
C1Q induced IL-1β production (human PBMC): decreased | C1Q induced IL-18 production (human PBMC): decreased
